Laboratory results: patent publication US7626021B2, “Fused ring heterocycle kinase modulators” (SGX Pharmaceuticals, Inc., priority 2004, dated 2009)

molecular target: T1, Abl T315I KD (unphosphorylated c-Abl T315I kinase domain) (Mus musculus, UniProt P00520, T315I); assay: c-Abl T315I (unphosphorylated kinase domain) enzyme assay, PK/LDH coupled; type: biochemical; conditions: mutant Abl kinase domain at zero phosphorylation state; read-out: Abl_T215l—0P IC50
T1 construct: purified and unphosphorylated T315I Abl kinase domain; made in house; host or cells: E. coli BL21(DE3)
T1 sequence (P00520 242-493 T315I limits assumed): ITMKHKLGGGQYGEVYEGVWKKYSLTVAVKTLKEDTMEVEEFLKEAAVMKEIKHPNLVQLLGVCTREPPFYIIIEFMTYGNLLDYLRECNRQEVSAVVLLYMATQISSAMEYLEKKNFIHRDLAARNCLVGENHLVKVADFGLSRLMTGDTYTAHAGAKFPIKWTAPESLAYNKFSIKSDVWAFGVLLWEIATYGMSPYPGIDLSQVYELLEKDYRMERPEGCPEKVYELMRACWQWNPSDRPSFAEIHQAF
Description: Although the first of these examples uses the kinase domain of a mutant form of Abl T315I (“Abl T315I KD”), the kinase assays may use various forms of mutant and wild type enzymes, including, for example, the entire protein, the kinase domain, or a portion thereof (e.g. Abl Y393F). The kinases used in the assays may also be of varying phosphorylation states. In the c-Abl example, a mutant kinase at a zero phosphorylation state was used.
c-Abl Pyruvate Kinase/Lactate Dehydrogenase Coupled Enzyme Assay
In the c-Abl Pyruvate Kinase (PK)/Lactate Dehydrogenase (LDH) Coupled Assay the protein kinase dependant phosphorylation of a substrate peptide was coupled to the oxidation of NADH. The oxidation of NADH to NAD+ was detected by monitoring a decrease in absorbance at 340 nm.
Materials: Abl substrate peptide=EAIYAAPFAKKK SEQ ID NO:1)-OH (Biopeptide, San Diego, Calif.); βNADH (Sigma Cat#N-8129, FW=709.4); 2M MgCl2; 1M HEPES buffer, pH 7.5; Phosphoenolpyruvate (PEP) (Sigma Cat#P-7002, FW=234); Lactate dehydrogenase (LDH) (Worthington Biochemical Cat#2756); Pyruvate Kinase (PK) (Sigma Cat#P-9136); ATP (Sigma Cat#A-3377, FW=551); Greiner 384-well UV star plate; and purified and unphosphorylated T315I Abl kinase domain.
Stock Solutions: 10 mM NADH (7.09 mg/ml in miliQH2O) made fresh daily; 10 mM Abl substrate peptide (13.4 mg/ml in miliQH2O) stored at −20° C.; 100 mM HEPES buffer, pH 7.5 (5 ml IM stock+45 ml miliQH2O); 100 mM MgCl2 (5 ml 2M MgCl2+95 ml dH2O); 100 mM PEP (23.4 mg/ml in dH2O) stored at −20° C.; 10 mM ATP (5.51 mg/ml in dH2O) stored at −20° C. (diluted 50 μl into total of 10 ml miliQH2O daily=50 μM ATP working stock); 1000 U/ml PK (U/mg varies with lot) flash-frozen under liquid N2 and stored at −80° C.; and 1000 U/ml LDH (U/mg varies with lot) flash-frozen under liquid N2 and stored at −80° C.
Standard Assay Setup for 384-well format (50 μl reaction): 300 μM NADH; 10 mM MgCl2; 2 mM PEP; 45 U/ml PK; 60 U/ml LDH; 200 μM Abl substrate peptide; 2.5 μl test compound (in DMSO); 2 μg/ml Abl kinase domain; 10 μM ATP; 100 mM HEPES buffer. Positive controls contained DMSO with no test compound. Negative controls contained 5 μl of 0.5M EDTA (50 mM in the assay). The dephosphorylated form of the c-Abl T315I mutant was used in the biochemical screening assays. The kinase reaction was initiated at time t=0 by the addition of ATP.
Activity was measured by following the time-dependent loss of NADH by absorbance spectroscopy at 340 nm. The linear portion of the resulting progress curve was then analyzed by linear regression to get the activity in absorbance units/time, reported as the slope of that best fit line (moles/unit time can be calculated from using molar extinction coefficient for NADH at 340 nm, 6250M^−1cm^−1).
Data was evaluated using the equation: Z′=1-[3*(σ++σ−)/|μ+−μ−|] (Zhang, et al., 1999 J Biomol Screening 4(2) 67-73), where […] the mean and σ the standard deviation. The subscript designates positive or negative controls. The Z′ score for a robust screening assay should be 0.50. The typical threshold=μ+−3*σ+. Any value that falls below the threshold was designated a “hit”.
Dose response was analyzed using the equation: y=min+{(max−min)/(1+10^[compound]-logIC50)}, where y is the observed initial slope, max=the slope in the absence of inhibitor, min=the slope at infinite inhibitor, and the IC50 is the [compound] that corresponds to ½ the total observed amplitude (Amplitude=max−min).
To measure modulation, activation, or inhibition of Abl KD, a test compound was added to the assay at a range of concentrations. Inhibitors may inhibit Abl KD activity at an IC50 in the micromolar range, the nanomolar range, or, for example, in the subnanomolar range.

IC50, < 1000 nM:
COc1ccccc1-c1n[nH]c2ncc(-c3cccc(C(=O)NC(C)C)c3)cc12
Cc1ccsc1-c1n[nH]c2ncc(-c3cccc(C(=O)N4CCOCC4)c3)cc12
CCOc1ccccc1-c1n[nH]c2ncc(-c3cccc(C(=O)N4CCOCC4)c3)cc12
COc1ccccc1-c1n[nH]c2ncc(-c3cccc(C(=O)N4CCN(C)CC4)c3)cc12
c1ccc(-c2n[nH]c3ncc(-c4cccnc4)cc23)cc1
COc1ccccc1-c1n[nH]c2ncc(-c3ccc(O)c(C(=O)N4CCOCC4)c3)cc12
c1ccc(-c2n[nH]c3ncc(-c4ccc5[nH]ccc5c4)cc23)cc1
O=C(c1cccc(-c2cnc3[nH]nc(-c4cccc5cccnc45)c3c2)c1)N1CCOCC1
COc1ccccc1-c1n[nH]c2ncc(-c3ccc(C(=O)NC4CC4)cc3)cc12
Cc1cc(F)ccc1-c1n[nH]c2ncc(-c3cccc(C(=O)N4CCOCC4)c3)cc12
O=C(c1cccc(-c2cnc3[nH]nc(-c4ccc5cc[nH]c5c4)c3c2)c1)N1CCOCC1
COc1cc(-c2cnc3[nH]cc(-c4ccc(C)cc4)c3n2)ccc1O
COc1ccccc1-c1n[nH]c2ncc(-c3ccc(C(=O)N4CCOCC4)cc3)cc12
COc1ccccc1-c1n[nH]c2ncc(-c3cccc(C(=O)N(C)C)c3)cc12
COc1ccccc1-c1cnc2[nH]nc(-c3ccccc3OC)c2c1
COc1ccccc1-c1n[nH]c2ncc(-c3cccc(S(=O)(=O)NC4CC4)c3)cc12
COc1ccccc1-c1n[nH]c2ncc(-c3cccc(C(=O)N4CCN(CCN(C)C)CC4)c3)cc12
CCN1CCN(C(=O)c2cccc(-c3cnc4[nH]nc(-c5cc(F)ccc5OC)c4c3)c2)CC1
COc1ccccc1-c1n[nH]c2ncc(-c3cccc(C(=O)N4CCC(CO)CC4)c3)cc12
Oc1cccc(-c2cnc3[nH]nc(-c4ccccc4)c3c2)c1
COc1ccccc1-c1n[nH]c2ncc(-c3cccc(C(=O)N4CCCC4)c3)cc12
COc1ccccc1-c1n[nH]c2ncc(-c3cccnc3)cc12
COc1ccccc1-c1n[nH]c2ncc(-c3ccc(C(=O)N4CCCCC4)cc3)cc12
COc1ccccc1-c1n[nH]c2ncc(-c3ccc(C(=O)N4CCN(C)CC4)cc3)cc12
COc1ccccc1-c1n[nH]c2ncc(-c3ccc(C(=O)N4CCCC4)cc3)cc12
COc1ncc(-c2n[nH]c3ncc(-c4cccc(C(=O)N5CCOCC5)c4)cc23)c(OC)n1
CCc1ccccc1-c1n[nH]c2ncc(-c3cccc(C(=O)N4CCOCC4)c3)cc12
COc1ccccc1-c1c[nH]c2ncc(-c3cccc(C(=O)N(C)C)c3)nc12
COc1c(F)cccc1-c1n[nH]c2ncc(-c3cccc(C(=O)N4CCOCC4)c3)cc12
COc1ccccc1-c1n[nH]c2ncc(-c3cnc4[nH]n(C)c(=O)c4c3)cc12
COc1ccccc1-c1n[nH]c2ncc(Br)cc12
Cn1ccc2cc(-c3n[nH]c4ncc(-c5cccc(C(=O)N6CCOCC6)c5)cc34)ccc21
COc1cc(-c2cnc3[nH]nc(-c4ccccc4)c3c2)ccc1O
O=C(c1cccc(-c2cnc3[nH]nc(-c4ccncc4Cl)c3c2)c1)N1CCOCC1
